Laboratory results reported in ChEMBL document CHEMBL1255264, “Mechanism-based pharmacokinetic-pharmacodynamic models of in vitro fungistatic and fungicidal effects against Candida albicans” (Antimicrob Agents Chemother, 2008).
Values after ≈ are worked out from the molar mass of the structure shown.

Experiments:
Candida albicans [1] = assay: Antifungal activity against Candida albicans ATCC 3153 assessed as death stimulation in vitro pharmacokinetic-pharmacodynamic model; type: functional, organism-based
Candida albicans [2] = assay: Antifungal activity against Candida albicans ATCC 3153 assessed as maximum killing rate in vitro pharmacokinetic-pharmacodynamic model; type: functional
Candida albicans [3] = assay: Antifungal activity against Candida albicans ATCC 3153 after 48 hrs; type: functional; conditions: ATCC 3153, 48 h
Candida albicans [4] = assay: Antifungal activity against Candida albicans ATCC 3153 in vitro pharmacokinetic-pharmacodynamic model; type: functional, organism-based

SMILES | EC50 (Candida albicans [1]) | Emax (Candida albicans [2]) | MIC (Candida albicans [3]) | IC50 (Candida albicans [4])
CC[C@H](C)C[C@H](C)CCCCCCCCC(=O)N[C@H]1C[C@@H](O)[C@@H](NCCN)NC(=O)[C@@H]2[C@@H](O)CCN2C(=O)[C@H]([C@H](O)CCN)NC(=O)[C@H]([C@H](O)[C@@H](O)c2ccc(O)cc2)NC(=O)[C@@H]2C[C@@H](O)CN2C(=O)[C@H]([C@@H](C)O)NC1=O [CASPOFUNGIN] | 0.000251 µg/mL (≈ 0.00023 µM) | 8.04 ×10⁻¹ /hr | 0.015 µg/mL (≈ 0.0137 µM) | 
OC(Cn1cncn1)(Cn1cncn1)c1ccc(F)cc1F [FLUCONAZOLE] |  |  |  | 0.0929 µg/mL (≈ 0.303 µM)
